This note sets out measurements from patent US20240139226A1, “A COMPOSITION FOR PROMOTING GLP-1 SECRETION” (priority 2021, published 2024).

The test deals with NCI-H716 cells. Kind of test: GLP-1 secretion-promoting effect using NCI-H716 cells (GLP-1 in supernatant by ELISA). Type of test: cell-based, Human. As to conditions: for GLP-1 secretion compared to Control: Experiment 1-3, text on Table 1, mGN 2.5 mM, flavor component 0.25 mM; for activity at 125 µM: test sample alone at 0.125 mM; for activity at 25 µM: test sample alone at 0.025 mM; for activity at 2500 µM: test sample alone at 2.5 mM; for activity at 25000 µM: test sample alone at 25 mM. Here is the method:
GLP-1 secretion-promoting effect was evaluated by the following experiment using NCI-H716 cells (Human intestinal tract-derived cell line; purchased from ATCC).
NCI-H716 cells were cultured at 37° C. with 5% CO2 using RPMI1640 (supplemented with 10% Fetal Bovine Serum, manufactured by Sigma) as a cell culture medium for passage. After culturing, cells were suspended in DMEM medium (supplemented with 10% Fetal Bovine Serum; containing 4.5 mg/mL of glucose; manufactured by Shimadzu Diagnostics Corporation, Tokyo, Japan) and added to a Matrigel (120 μL/well; manufactured by Corning Incorporated, NY, USA)-coated 48-well plate at a cell density of 1.2×10^5 cells/well. After incubation for 2 days, the cells were washed twice with 20 mM HEPES-containing HBSS (Hank's Balanced Salt Solution) buffer. After removal of the washing buffer, 20 mM HEPES-HBSS (supplemented with 0.01% BSA) containing the above-described test samples was added and the cells were incubated for 2 hours. After incubation, the supernatant was collected into a microcentrifuge tube containing diprotin-A (DPP4 inhibitor, manufactured by Abcam plc., Cambridge, UK) and protease inhibitors (cOmplete™, EDTA-free Protease Inhibitor Cocktail, Roche, Basel, Switzerland; Catalogue No. 1187358001). After centrifugation, the supernatant was stored at −80° C. until it was used for the GLP-1 measurement. The amount of GLP-1 in the medium was measured by ELISA method using GLP-1 Active Form Assay Kit (manufactured by Immuno-Biological Laboratories Co, Ltd., Gunma, Japan). […] As a positive control for measuring cytotoxicity, the cells added with 0.1% Triton X-100/PBS (−) (Phosphate Buffered Saline) were used. The LDH activity in the cell culture supernatant of the positive control was set as 100% and the ratio to the positive control (LDH activity in the cell culture supernatant of sample/LDH activity in the positive control) was calculated as the cytotoxicity rate. Herein, it was judged that a sample had no cytotoxicity when the cytotoxicity rate was within ±2% compared to that of “control (cells cultured with 20 mM HEPES-HBSS without a test sample, instead of 20 mM HEPES-HBSS containing a test sample; shown as “No Addition” in Table 1)”.
The amount of GLP-1 secretion was determined as a relative value to the average value of the GLP-1 secretion amount obtained for a control (cells cultured with 20 mM HEPES-HBSS without a test sample instead of 20 mM HEPES-HBSS containing a test sample; shown as “No Addition” in Table 1). In Table 1, the GLP-1 secretion amounts when mGN and flavor components were used separately and the GLP-1 secretion amounts when mGN and flavor components were used in combination were shown. […] The synergistic effect of mGN and flavor components in promoting GLP-1 secretion was judged based on the following criteria.
Synergistic Effect: Theoretical Value<(is less than) Measured Value • Theoretical Value=([…])×100+(B/D−1)×100 • Measured Value=(C/D-1)×100
The theoretical value and the measure value were compared based on the above formula. When the measured value was higher than the theoretical value, it was judged that there was a synergistic effect, which was indicated as “O” in the table.
The presence or absence of the synergistic effect by the combination of mGN and thymol was judged based on the formula used in Experiment 1-3. When the measured value was higher than the theoretical value, it was judged that there was a synergistic effect and it was indicated as “O” in the table. Furthermore, a Tukey-Kramer test was performed. When there was a significant difference (Risk Rate p<0.05) between the GLP-1 secretion amount of the combination of mGN and thymol (C) and each of the GLP-1 secretion amount of Control (D), mGN alone (A), and thymol alone (B), it was indicated “⊚” in the below table.
For orientation: In an ELISA, binding on a coated surface is turned into a signal by an enzyme label.

Setting [1] is: Homo sapiens, NCI-H716, 2 h, Table 1, Experiment 1-3, test sample alone at 0.25 mM, Control (No Addition) = 100, 2 hours, read-out: GLP-1 secretion amount, Independent Use (relative value to Control).
Where [2] appears, read: Experiment 1-3, flavor component alone 0.25 mM.
Where [3] appears, read: Table 1, Experiment 1-3, test sample alone at 0.25 mM, Control (No Addition) = 100, 2 hours.
Setting [4] is: Homo sapiens, NCI-H716, 2 h, Table 4, Experiment 4, Control = 100, N=3, read-out: GLP-1 secretion amount, Independent Use (relative value to Control).
Where [5] appears, read: Homo sapiens, NCI-H716, 2 h, Table 4, Experiment 4, test sample alone at 0.25 mM, Control = 100, N=3, read-out: GLP-1 secretion amount, Independent Use (relative value to Control).
The mark [6] stands for this setting: Homo sapiens, NCI-H716, 2 h, Table 3, Experiment 3, Control = 100, N=3, read-out: GLP-1 secretion amount, Independent Use (relative value to Control).
Setting [7] is: Homo sapiens, NCI-H716, 2 h, Table 2, Experiment 2, Control = 100, N=3, read-out: GLP-1 secretion amount, Independent Use (relative value to Control).
Where [8] appears, read: Homo sapiens, NCI-H716, 2 h, Table 6, Experiment 6, Control = 100, N=3, read-out: GLP-1 secretion amount, Independent Use (relative value to Control).

Like-named read-outs stand apart in the source and are kept apart here.

Take `C=C1C2CCC(C2)C1(C)C` (centres unmarked) [Camphene, camphene]: under setting [1], the activity at 250 µM worked out at 135%.
As for `CC(C)=CCCC(C)=CC=O` [Citral, citral, reference compound], the “GLP-1 secretion compared to Control” value was “approximately 2.4 times”. Also, the activity at 250 µM under setting [1] is 246%.
For `CC(C)=CCCC(C)CC=O` (centres unmarked) [Citronellal, citronellal, reference compound], under setting [1], the activity at 250 µM is 113%.
With `CNc1ccccc1C(=O)OC` [Methyl N-methyl anthranilate, methyl N-methyl anthranilate], the “GLP-1 secretion promoting effect when used alone (in words)” value (shortened to “GLP-1 secretion promoting effect”) under setting [2] was “no GLP-1 secretion promoting effect”. Further, the “GLP-1 secretion amount, Independent Use (relative value to Control)” value under setting [3] was found to be 73.
As for `COC(=O)c1ccccc1N` [Methyl anthranilate, methyl anthranilate], the “GLP-1 secretion promoting effect” value under setting [2] is listed as “no GLP-1 secretion promoting effect”. In addition, the activity at 250 µM (Homo sapiens, NCI-H716, 2 h, read-out: GLP-1 secretion amount, Independent Use (relative value to Control)) came to 73%.
For the compound `C=C(C)[C@@H]1CCC2=CC(=O)C[C@@H](C)[C@]2(C)C1` [Nootkatone, nootkatone], under “Experiment 4, alone, concentrations of Table 4”, the “GLP-1 secretion when used alone (in words)” value is listed as “promoted in a nootkatone concentration-dependent manner”. Further, the activity at 250 µM is 457% under setting [1] and 464% under setting [5]. In addition, the activity at 12.5 µM (Homo sapiens, NCI-H716, 2 h, Table 4, Experiment 4, test sample alone at 0.0125 mM, Control = 100, N=3, read-out: GLP-1 secretion amount, Independent Use (relative value to Control)) is 70%. Moreover, the activity at 37.5 µM (Homo sapiens, NCI-H716, 2 h, Table 4, Experiment 4, test sample alone at 0.0375 mM, Control = 100, N=3, read-out: GLP-1 secretion amount, Independent Use (relative value to Control)) worked out at 111%. Also, the activity at 125 µM under setting [4] was determined as 350%.
`C=C1CCC2(C(C)C)CC12` (centres unmarked) [Sabinene, sabinene]: the “GLP-1 secretion promoting effect” value under setting [2] is reported as “no GLP-1 secretion promoting effect”. Besides, under setting [1], the activity at 250 µM was 101%.
For `Cc1ccc(C(C)C)c(O)c1` [Thymol, thymol], the “GLP-1 secretion promoting effect” value under setting [2] is “no GLP-1 secretion promoting effect”. Under “Experiment 2, alone at a concentration of 0.25 mM”, the “GLP-1 secretion-promoting effect when used alone (in words)” value is given as “no GLP-1 secretion-promoting effect was observed”. Moreover, the “GLP-1 secretion promoting effect” value (Experiment 3, alone, 0.0067 mM to 0.125 mM) is given as “no GLP-1 secretion promoting effect”. Moreover, under setting [1], the activity at 250 µM turned out to be 82%. Where the note is “Homo sapiens, NCI-H716, 2 h, Table 3, Experiment 3, test sample alone at 0.0067 mM, Control = 100, N=3, read-out: GLP-1 secretion amount, Independent Use (relative value to Control)”, the activity at 6.7 µM came to 34%. For the same compound, under setting [6], the activity at 25 µM was found to be 61% and the activity at 125 µM was determined as 65%.
Regarding `C=C(C)[C@@H]1CCC2=CCC[C@@H](C)[C@]2(C)C1` [Valencene, valencene], the “GLP-1 secretion amount, Independent Use (relative value to Control)” value under setting [3] is on record as 121.
As to `CC1O[C@@H](OC2[C@H](Oc3cc(O)c4c(c3)OC(c3ccc(O)cc3)CC4=O)OC(CO)[C@@H](O)[C@H]2O[C@H]2OC(CO)[C@@H](O)[C@@H](O)C2O)C(O)[C@@H](O)[C@H]1O` (stereo partly drawn) [mGN, 3″-α-monoglucosyl naringin], the “GLP-1 secretion compared to Control” value is listed as “approximately 1.6 times”. Further, the “GLP-1 secretion when used alone (in words)” value (Experiment 2, alone, 0.025 mM to 150 mM) is reported as “promoted to some extent in a mGN concentration-dependent manner”. Besides, under “Homo sapiens, NCI-H716, 2 h, Table 1, Experiment 1-3, Control (No Addition) = 100, 2 hours, read-out: GLP-1 secretion amount, Independent Use (relative value to Control)”, the activity at 2500 µM turned out to be 164%. Further, under setting [7], the activity at 25 µM is 45%, the activity at 2500 µM was 121% and the activity at 25000 µM came to 427%. Further, where the note is “Homo sapiens, NCI-H716, 2 h, Table 2, Experiment 2, test sample alone at 0.25 mM, Control = 100, N=3, read-out: GLP-1 secretion amount, Independent Use (relative value to Control)”, the activity at 250 µM was 63%. In addition, under setting [6], the activity at 25000 µM worked out at 521%. Also, under setting [4], the activity at 25 µM came out at 39% and the activity at 2500 µM was 85%. The activity at 250 µM under setting [5] came out at 63%. For the setting “Homo sapiens, NCI-H716, 2 h, Table 4, Experiment 4, test sample alone at 12.5 mM, Control = 100, N=3, read-out: GLP-1 secretion amount, Independent Use (relative value to Control)”, the activity at 12500 µM stood at 502%. The activity at 25 µM (Homo sapiens, NCI-H716, 2 h, Table 5, Experiment 5, Control = 100, N=3, read-out: GLP-1 secretion amount, Independent Use (relative value to Control)) worked out at 39%. Under setting [8], the activity at 25 µM was found to be 53% and the activity at 25000 µM was determined as 457%.
On to `CC1=CCC2CC1C2(C)C` (stereo not drawn) [α-Pinene, α-pinene], for which, under setting [1], the activity at 250 µM was determined as 136%.
Take `C=C1CC/C=C(\C)CC[C@@H]2[C@@H]1CC2(C)C` [β-Caryophyllene, β-caryophyllene]: the “GLP-1 secretion amount, Independent Use (relative value to Control)” value under setting [3] is on record as 111.
Still for that read-out and setting: the same measure for `CC(=O)/C=C/C1=C(C)CCCC1(C)C` [β-Ionone, β-ionone]: 157.
Take `C=C1CCC2CC1C2(C)C` (stereo not drawn) [β-Pinene, β-pinene]: the “GLP-1 secretion promoting effect” value under setting [2] is reported as “no GLP-1 secretion promoting effect”. Moreover, the activity at 250 µM under setting [1] came to 100%.
